Where a SMILES comes first, the peptide text is derived from it. [ ]: non-standard residue; d: D form. The star is where a group is joined. NHCH2CH2OH = OCCN*; For = O=C*

The results in this text go back to publication PMC7531004, “Discovery of gramicidin A analogues with altered activities by multidimensional screening of a one-bead-one-compound library” (Nature Communications, 2020).

For series [1], the system named is Streptococcus pyogenes SSI-9. In words: Antibacterial activity assay of bead-derived peptides (three concentrations). To be noted: S. pyogenes, bead-derived peptide solution, three concentrations. The series is classed as cell-based. Set-up: key: +++: inhibition by the 640-fold diluted peptide solution; ++: inhibition by the 160-fold diluted solution; +: inhibition by the 40-fold diluted solution; -: no inhibition. The method in brief:
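Growth inhibition scored visually as precipitated bacteria after 37 °C, 18 h incubation. Streptococcus pyogenes SSI-9 inoculum of 2 × 10^5 CFU in Ca2+/Mg2+-adjusted Mueller Hinton broth plus 5% laked horse blood; peptides tested at three levels: stock, 4-fold and 16-fold DMSO dilutions.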

The conditions of series [2]: cell viability/%. The method in brief:
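Peptide stocks diluted 250× in growth medium; P388 cells 1 × 10^4 cells/mL final; 37 °C, 5% CO2, 92 h. WST-1 + 1-methoxy PMS, 4 h, A415. Output: % viability.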

The nature of series [3]: H+/Na+ transport assay of bead-derived peptides (one-point).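 Also: relative to parent gramicidin A activity set to 1.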 The format is biochemical. Also noted: key: relative activity; mean of two control wells = 1.00. To be noted: bead-derived peptide solution, EYPC/EYPG LUVs. The procedure, abridged: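 Miniaturized 96-well format. LUVs with entrapped pyranine (1.0 mM) were exposed to peptide for 30 min at RT. Intensities were expressed relative to full lysis by Triton X-100 and no treatment, with control-well mean = 1.00.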

`CC(C)C[C@@H](NC(=O)[C@H](C)NC(=O)[C@H](NC(=O)[C@H](C)NC(=O)CNC(=O)[C@@H](NC=O)C(C)C)C(C)C)C(=O)N[C@H](C(=O)N[C@H](CC(C)C)C(=O)N[C@@H](Cc1c[nH]c2ccccc12)C(=O)N[C@H](CC(C)C)C(=O)N[C@@H](Cc1c[nH]c2ccccc12)C(=O)N[C@@H](C(=O)N[C@@H](Cc1c[nH]c2ccccc12)C(=O)N[C@H](CC(C)C)C(=O)N[C@@H](Cc1c[nH]c2ccccc12)C(=O)NCCO)C(C)C)C(C)C` [compound 3255] (For-VGA[dV]A[dL]V[dL]W[dL]W[dV]W[dL]W-NHCH2CH2OH): the antibacterial activity result in series [1] was “+”. The molecule also came in with a viability in series [2] of 4.6%. Also, the “H+/Na+ transport activity normalized against the value of 1 (1.00)” value in series [3] was 1.13.
Taken in the same sequence, the figures for `CC(C)C[C@@H](NC(=O)[C@H](C)NC(=O)CNC(=O)[C@@H](NC=O)C(C)C)C(=O)N[C@@H](C)C(=O)N[C@@H](C(=O)N[C@H](C(=O)N[C@@H](C(=O)N[C@@H](Cc1c[nH]c2ccccc12)C(=O)N[C@H](CC(C)C)C(=O)N[C@@H](Cc1c[nH]c2ccccc12)C(=O)N[C@@H](C(=O)N[C@@H](Cc1c[nH]c2ccccc12)C(=O)N[C@@H](C(=O)N[C@@H](Cc1c[nH]c2ccccc12)C(=O)NCCO)[C@H](C)O)C(C)C)C(C)C)C(C)C)C(C)C` [compound 7010] (For-VGA[dL]A[dV]V[dV]W[dL]W[dV]W[dT]W-NHCH2CH2OH) were “+”, 100% and 1.07.
For `CC(C)C[C@@H](NC(=O)[C@H](C)NC(=O)[C@H](NC(=O)[C@H](C)NC(=O)CNC(=O)[C@@H](NC=O)C(C)C)C(C)C)C(=O)N[C@H](C(=O)N[C@@H](C(=O)N[C@@H](Cc1c[nH]c2ccccc12)C(=O)N[C@@H](C(=O)N[C@@H](Cc1c[nH]c2ccccc12)C(=O)N[C@@H](C(=O)N[C@@H](Cc1c[nH]c2ccccc12)C(=O)N[C@H](CC(C)C)C(=O)N[C@@H](Cc1c[nH]c2ccccc12)C(=O)NCCO)[C@H](C)O)C(C)C)C(C)C)C(C)C` [compound 2727] (For-VGA[dV]A[dL]V[dV]W[dV]W[dT]W[dL]W-NHCH2CH2OH), in that order: “-”, 100% and 1.05.
Taken in the same sequence, the figures for `CC(C)C[C@@H](NC(=O)[C@H](C)NC(=O)CNC(=O)[C@@H](NC=O)C(C)C)C(=O)N[C@@H](C)C(=O)N[C@@H](C(=O)N[C@H](C(=O)N[C@@H](C(=O)N[C@@H](Cc1c[nH]c2ccccc12)C(=O)N[C@@H](C(=O)N[C@@H](Cc1c[nH]c2ccccc12)C(=O)N[C@H](CC(C)C)C(=O)N[C@@H](Cc1c[nH]c2ccccc12)C(=O)N[C@@H](C(=O)N[C@@H](Cc1c[nH]c2ccccc12)C(=O)NCCO)C(C)C)[C@H](C)O)[C@H](C)O)C(C)C)C(C)C` [compound 5747] (For-VGA[dL]A[dV]V[dT]W[dT]W[dL]W[dV]W-NHCH2CH2OH) were “-”, 100% and 1.09.
For the molecule `CNC(=O)C[C@@H](NC(=O)[C@H](Cc1c[nH]c2ccccc12)NC(=O)[C@@H](CC(C)C)NC(=O)[C@@H](NC(=O)[C@@H](CC(C)C)NC(=O)[C@H](C)NC(=O)[C@H](NC(=O)[C@H](C)NC(=O)CNC(=O)[C@@H](NC=O)C(C)C)[C@H](C)O)C(C)C)C(=O)N[C@@H](Cc1c[nH]c2ccccc12)C(=O)N[C@H](CC(C)C)C(=O)N[C@@H](Cc1c[nH]c2ccccc12)C(=O)N[C@H](CC(C)C)C(=O)N[C@@H](Cc1c[nH]c2ccccc12)C(=O)NCCO` [compound 5284] (For-VGA[dT]A[dL]V[dL]W[dD](NHMe)W[dL]W[dL]W-NHCH2CH2OH), the antibacterial activity entry in series [1] is “-”. The viability in series [2] worked out at 100%. Moreover, the “H+/Na+ transport activity normalized against the value of 1 (1.00)” value in series [3] is recorded as 1.02.
